Experimental data as given in PubChem BioAssay AID330 (DTP/NCI, 2004).
Values joined by “and” are separate entries in the source; they are usually repeats but may differ in a detail not shown here. Equal values may be shown once. Inconclusive results and toxic doses are left out. How the source made its calls: active means survival T/C of 150% or more; inactive means T/C below 125% in these data.

Test system: P388 leukemia ip, CD2F1 mice, survival T/C
Assay: NCI In Vivo Anticancer Drug Screen. Data for tumor model P388 Leukemia (intraperitoneal) in CD2F1 (CDF1) mice
Details: endpoint: median survival time, higher = longer survival
How it was run: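 Mice carrying the transplanted tumor received test compound or vehicle. Survival was recorded in each group, and the value is the treated-group measurement divided by that of the vehicle-treated control group.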

[1] = dose: 100.0 mg/kg/injection, schedule: Q04DX003 (ip), vehicle: saline with Tween-80
[2] = dose: 200.0 mg/kg/injection, schedule: Q04DX003 (ip), vehicle: saline with Tween-80
[3] = dose: 100.0 mg/kg/injection, schedule: Q01DX009 (ip), vehicle: saline with Tween-80
[4] = dose: 200.0 mg/kg/injection, schedule: Q01DX009 (ip), vehicle: saline with Tween-80
[5] = dose: 400.0 mg/kg/injection, schedule: Q01DX009 (ip), vehicle: saline with Tween-80
[6] = dose: 50.0 mg/kg/injection, schedule: Q01DX005 (ip), vehicle: saline with Tween-80
[7] = dose: 100.0 mg/kg/injection, schedule: Q01DX005 (ip), vehicle: saline with Tween-80
[8] = dose: 200.0 mg/kg/injection, schedule: Q01DX005 (ip), vehicle: saline with Tween-80
[9] = dose: 6.25 mg/kg/injection, schedule: Q01DX005 (ip), vehicle: Klucel (hydroxypropylcellulose) (HPC)
[10] = dose: 25.0 mg/kg/injection, schedule: Q01DX005 (ip), vehicle: Klucel (hydroxypropylcellulose) (HPC)
[11] = dose: 50.0 mg/kg/injection, schedule: Q01DX005 (ip), vehicle: Klucel (hydroxypropylcellulose) (HPC)
[12] = dose: 50.0 mg/kg/injection, schedule: Q01DX009 (ip), vehicle: saline with Tween-80
[13] = dose: 50.0 mg/kg/injection, schedule: Q01DX009 (ip), vehicle: saline
[14] = dose: 200.0 mg/kg/injection, schedule: Q01DX009 (ip), vehicle: saline
[15] = dose: 100.0 mg/kg/injection, schedule: Q01DX005 (ip), vehicle: Klucel (hydroxypropylcellulose) (HPC)
[16] = dose: 200.0 mg/kg/injection, schedule: Q01DX005 (ip), vehicle: Klucel (hydroxypropylcellulose) (HPC)
[17] = dose: 12.5 mg/kg/injection, schedule: Q01DX005 (ip), vehicle: saline with Tween-80
[18] = dose: 50.0 mg/kg/injection, schedule: Q01DX005 (ip), vehicle: saline
[19] = dose: 100.0 mg/kg/injection, schedule: Q01DX001 (ip), vehicle: saline with Tween-80
[20] = dose: 200.0 mg/kg/injection, schedule: Q01DX001 (ip), vehicle: saline with Tween-80
[21] = dose: 400.0 mg/kg/injection, schedule: Q01DX001 (ip), vehicle: saline with Tween-80
[22] = dose: 100.0 mg/kg/injection, schedule: Q01DX009 (ip), vehicle: saline

Measured: T/C

[NH-]C(CC(N)=O)C(=O)O.[NH-]C(CC(N)=O)C(=O)O.[Pd+2] (configuration not stated)
inactive: dose: 6.25 mg/kg/injection, schedule: Q04DX003 (ip), vehicle: saline with Tween-80 92 % of control | dose: 12.5 mg/kg/injection, schedule: Q04DX003 (ip), vehicle: saline with Tween-80 96 % of control | dose: 25.0 mg/kg/injection, schedule: Q04DX003 (ip), vehicle: saline with Tween-80 100 % of control | dose: 50.0 mg/kg/injection, schedule: Q04DX003 (ip), vehicle: saline with Tween-80 98 % of control | [1] 107 % of control | [2] 100 % of control

CCCCOC(OCCCC)C(OCCCC)OCCCC
inactive: [3] 105 % of control | dose: 100.0 mg/kg/injection, schedule: Q04DX003 (ip), vehicle: saline sonified 95 % of control | [4] 110 % of control | dose: 200.0 mg/kg/injection, schedule: Q04DX003 (ip), vehicle: saline sonified 100 % of control | [5] 105 % of control | dose: 400.0 mg/kg/injection, schedule: Q04DX003 (ip), vehicle: saline sonified 104 % of control

N#CC(C(=O)C(=O)Nc1cccc(Cl)c1)c1ccccc1 (configuration not stated)
inactive: [6] 109 % of control | [7] 104 % of control | [8] 99 % of control

CCCCOC(=O)C(C)OC(=O)Nc1cccc(C)c1 (configuration not stated)
inactive: dose: 100.0 mg/kg/injection, schedule: Q04DX002 (ip), vehicle: Klucel (hydroxypropylcellulose) (HPC) 105 % of control | dose: 200.0 mg/kg/injection, schedule: Q04DX002 (ip), vehicle: Klucel (hydroxypropylcellulose) (HPC) 103 % of control | dose: 400.0 mg/kg/injection, schedule: Q04DX002 (ip), vehicle: Klucel (hydroxypropylcellulose) (HPC) 100 % of control

Nc1ccc(N=N/C(=N\Nc2ccccc2[As](=O)(O)O)C(=O)Nc2ccccc2)c(Cl)c1
inactive: [9] 119 % of control | [10] 117 % of control | [11] 110 % of control and 123 % of control

O=C(O)c1cc(C(=O)CCCC(=O)c2cc(C(=O)O)c(O)c3ccccc23)c2ccccc2c1O
inactive: dose: 12.5 mg/kg/injection, schedule: Q01DX009 (ip), vehicle: saline with Tween-80 100 % of control | dose: 25.0 mg/kg/injection, schedule: Q01DX009 (ip), vehicle: saline with Tween-80 100 % of control | [12] 87 % of control | [3] 93 % of control

COc1ccccc1OC(C)=O
inactive: [13] 97 % of control | [14] 88 % of control

CCCCN(CCCC)CCCNC(c1ccc(N(C)C)cc1)c1ccc(N(C)C)cc1
inactive: [10] 98 % of control | [11] 104 % of control | [15] 98 % of control | [16] 102 % of control

CC[OH+]CC[OH+]CC[OH+]C1CCCC2CCC[N-]C21.[Cl][Cu][Cl] (configuration not stated)
inactive: [9] 97 % of control | dose: 12.5 mg/kg/injection, schedule: Q01DX005 (ip), vehicle: Klucel (hydroxypropylcellulose) (HPC) 92 % of control

CCCCCC(=N\N=C(N)N)/C(C)=N/N=C(N)N
inactive: [17] 98 % of control | dose: 25.0 mg/kg/injection, schedule: Q01DX005 (ip), vehicle: saline with Tween-80 97 % of control | [6] 101 % of control | [18] 100 % of control

Cc1cccc2c1C(=O)N(CC[P+](c1ccccc1)(c1ccccc1)c1ccccc1)C2=O
inactive: dose: 0.78 mg/kg/injection, schedule: Q01DX009 (ip), vehicle: water 111 % of control | dose: 1.33 mg/kg/injection, schedule: Q01DX009 (ip), vehicle: water 115 % of control | dose: 2.0 mg/kg/injection, schedule: Q01DX009 (ip), vehicle: water 119 % of control | dose: 3.0 mg/kg/injection, schedule: Q01DX009 (ip), vehicle: water 121 % of control

CC(=O)NC1C(NC(=S)NCC(=O)c2ccc(C)cc2)OC(COC(C)=O)C(OC(C)=O)C1OC(C)=O (configuration not stated)
inactive: [6] 94 % of control | [7] 94 % of control | [8] 91 % of control

COc1ccc(-c2sc(/N=C/c3ccc(N(C)CCC#N)cc3)c(C#N)c2C)cc1OC
inactive: dose: 3.13 mg/kg/injection, schedule: Q01DX009 (ip), vehicle: Klucel (hydroxypropylcellulose) (HPC) 89 % of control | dose: 6.25 mg/kg/injection, schedule: Q01DX009 (ip), vehicle: Klucel (hydroxypropylcellulose) (HPC) 91 % of control | dose: 12.5 mg/kg/injection, schedule: Q01DX009 (ip), vehicle: Klucel (hydroxypropylcellulose) (HPC) 91 % of control | dose: 25.0 mg/kg/injection, schedule: Q01DX009 (ip), vehicle: Klucel (hydroxypropylcellulose) (HPC) 90 % of control

CCOC(=O)c1[nH]c(C#N)c(C(=O)OCC)c1C
inactive: [3] 86 % of control | [4] 96 % of control | [5] 105 % of control

CCC(c1ccc(OC)cc1)C(NC(=S)Nc1ccc(Br)cc1)c1ccc(OC)cc1 (configuration not stated)
inactive: [19] 96 % of control | [20] 99 % of control | [21] 93 % of control

O=C1C(Cl)=C(NCCCN(CCCNC2=C(Cl)C(=O)c3ccccc3C2=O)C2=C(Cl)C(=O)c3ccccc3C2=O)C(=O)c2ccccc21
inactive: [13] 108 % of control and 118 % of control | [22] 109 % of control and 115 % of control | [14] 105 % of control and 108 % of control

CC[n+]1cccc(O)c1
inactive: [13] 105 % of control and 94 % of control | [22] 95 % of control and 96 % of control | [14] 107 % of control and 95 % of control | dose: 400.0 mg/kg/injection, schedule: Q01DX009 (ip), vehicle: saline 100 % of control and 105 % of control

O=C1c2ccccc2C(=O)N1C(=NC1CCCCC1)c1ccccc1
inactive: dose: 100.0 mg/kg/injection, schedule: Q04DX003 (ip), vehicle: Klucel (hydroxypropylcellulose) (HPC) 104 % of control | dose: 200.0 mg/kg/injection, schedule: Q04DX003 (ip), vehicle: Klucel (hydroxypropylcellulose) (HPC) 101 % of control | dose: 400.0 mg/kg/injection, schedule: Q04DX003 (ip), vehicle: Klucel (hydroxypropylcellulose) (HPC) 109 % of control

C=C(Br)S(=O)(=O)OCCCl
inactive: dose: 6.25 mg/kg/injection, schedule: Q01DX005 (ip), vehicle: saline with Tween-80 105 % of control | [17] 104 % of control

ClC(Cl)(Cl)C1OCCO1
inactive: [12] 95 % of control | [3] 104 % of control | [1] 100 % of control | [4] 90 % of control | [2] 90 % of control | dose: 400.0 mg/kg/injection, schedule: Q04DX003 (ip), vehicle: saline with Tween-80 95 % of control

Cc1ccc(S(=O)(=O)CS(N)(=O)=O)cc1
inactive: [19] 99 % of control | [20] 118 % of control | [21] 97 % of control

C=C(C)C1CCC2(C1)C(C)=CCCC2C (configuration not stated)
inactive: dose: 12.5 mg/kg/injection, schedule: Q01DX005 (ip), vehicle: saline 107 % of control | dose: 25.0 mg/kg/injection, schedule: Q01DX005 (ip), vehicle: saline 99 % of control | [18] 108 % of control | dose: 100.0 mg/kg/injection, schedule: Q01DX005 (ip), vehicle: saline 100 % of control | dose: 200.0 mg/kg/injection, schedule: Q01DX005 (ip), vehicle: saline 99 % of control

CNC1=CC(=S)NC(C)(C)C1
inactive: [13] 100 % of control | [22] 92 % of control | [14] 92 % of control

C#CC(=O)OC
inactive: dose: 25.0 mg/kg/injection, schedule: Q04DX002 (ip), vehicle: saline 102 % of control | dose: 50.0 mg/kg/injection, schedule: Q04DX002 (ip), vehicle: saline 98 % of control | dose: 100.0 mg/kg/injection, schedule: Q04DX002 (ip), vehicle: saline 106 % of control

COc1cccc([B-]23OCC[N+]2(CNC(=O)c2ccccc2O)CCO3)c1 (configuration not stated)
inactive: [11] 106 % of control | [15] 104 % of control | [16] 112 % of control

Cc1ccc(C)n1-c1ccsc1C(=O)NNC(=O)C(Cl)(Cl)Cl
inactive: dose: 7.5 mg/kg/injection, schedule: Q01DX005 (ip), vehicle: Klucel (hydroxypropylcellulose) (HPC) 102 % of control | dose: 15.0 mg/kg/injection, schedule: Q01DX005 (ip), vehicle: Klucel (hydroxypropylcellulose) (HPC) 101 % of control | dose: 30.0 mg/kg/injection, schedule: Q01DX005 (ip), vehicle: Klucel (hydroxypropylcellulose) (HPC) 111 % of control
